Reference: patent publication US9617541B2, “Biocompatible infinite coordination polymer nanoparticle-nucleic acid conjugates for antisense gene regulation” (NORTHWESTERN UNIVERSITY, priority 2014, dated 2017)

Test: Solubility observations
Type: physicochemical
Description: To a 100 mL round-bottomed flask with a magnetic stirrer was added (2) (5.90 g, 22.67 mmol), maltol (3.57 g, 28.34 mmol), and 30 mL of acidic 2-ethoxyethanol (49:1 ethoxyethanol/12M HCl). The reaction vessel was fitted with a water-cooled condenser and the mixture heated to reflux for 64 h. The resulting suspension was vacuum-filtered while hot and the solids washed with water (50 mL), followed by acetone (50 mL), to afford the crude product as a fine brown solid. […] HRMS-ESI (m/z): [M+H]^+ calculated for C19H17N2O6 369.1081. found 369.1084.
In a typical experiment, an aqueous stock solution of DABA-bis-HP-N3 was prepared consisting of 2.28 mM ligand and 24.5 mM NaOH. […] A stock solution of Fe(NO3)3.9H2O was prepared consisting of 10.80 mM Fe^3+ and 4 mM HCl (as stabilizer). To a glass vial was added 877 μL ligand stock solution, followed by 1 mL Milli-Q H2O, followed by 123 μL Fe(III) stock and the resulting orange-red mixture (2 mL) shaken for 10 minutes. The as-synthesized particles have a mean diameter ranging from 10-20 nm (DLS). Particles were purified by filtration through an Amicon Ultra 15 mL centrifugal filter with a nominal molecular weight cutoff (MWCO) of 100 kDa, washing with 3×3 mL portions of Milli-Q H2O, spinning at 5000 rcf for 10 minutes each. The particles were resuspended in 2 mL of H2O to give an approximate azide concentration of 1 mM. The particle solution was lyophilized and the resulting dark red powder characterized by FTIR (KBr), showing the characteristic azide stretch at 2093 cm^−1 is retained after the nanoparticle synthesis.

Row | solubility in hot DMSO and DMF (hot DMSO and DMF) | solubility in methanol (methanol) | solubility in water (water, as disodium salt) | Structure (SMILES)
1 | soluble | sparingly soluble |  | Cc1c(O)c(=O)ccn1-c1cc(C(=O)O)cc(-n2ccc(=O)c(O)c2C)c1 [compound 3, Diaminobenzoic Acid Bis-Hydroxypyridinone]
2 |  |  | freely soluble | Cc1c(O)c(=O)ccn1-c1cc(C(=O)NCCCCN=[N+]=[N-])cc(-n2ccc(=O)c(O)c2C)c1 [compound 4, Diaminobenzoic Acid Bis-HP Azide]
